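96-well plates; 48 h exposure; 5 concentrations. Endpoints by linear interpolation between flanking doses. Not reached: highest tested concentration assigned. Here, GI50 denotes the concentration required for 50% inhibition of growth.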 Activity calls are given as the source filed them. No stated cut-off is given here; in the data, active = GI50 up to about 1.1 µM and inactive = higher.
What was measured:
Test in all cases: growth of human tumour cells (NCI), 48 h
A498 = system: A498
ACHN = system: ACHN
EKVX = system: EKVX
HCC 2998 = system: HCC 2998
HOP-92 = system: HOP-92
HT-29 = system: HT-29
IGROV-1 = system: IGROV-1
MCF7 = system: MCF7
MDA-MB-231 = system: MDA-MB-231
NCI-H460 = system: NCI-H460
SF-268 = system: SF-268
SK-MEL-5 = system: SK-MEL-5
SK-OV-3 = system: SK-OV-3
SN12C = system: SN12C
SNB-19 = system: SNB-19
SNB-75 = system: SNB-75
U-251 = system: U-251
UACC-257 = system: UACC-257
UACC-62 = system: UACC-62
UO-31 = system: UO-31

Row | Compound | GI50 (A498) | GI50 (ACHN) | GI50 (EKVX) | GI50 (HCC 2998) | GI50 (HOP-92) | GI50 (HT-29) | GI50 (IGROV-1) | GI50 (MCF7) | GI50 (MDA-MB-231) | GI50 (NCI-H460) | GI50 (SF-268) | GI50 (SK-MEL-5) | GI50 (SK-OV-3) | GI50 (SN12C) | GI50 (SNB-19) | GI50 (SNB-75) | GI50 (U-251) | GI50 (UACC-257) | GI50 (UACC-62) | GI50 (UO-31)
1 | OC1COC(n2c3ccc(Br)cc3c3ccc4c5ccccc5[nH]c4c32)C(O)C1O (stereo not given) | 4.3 µM (inactive) | 2.84 µM (inactive) | 4.59 µM (inactive) | 2.67 µM (inactive) | 2.54 µM (inactive) | 3.15 µM (inactive) | 1.21 µM (inactive) | 2.99 µM (inactive) | 2.14 µM (inactive) | 2.58 µM (inactive) | 3.84 µM (inactive) | 2.26 µM (inactive) | 0.832 µM (active) | 4.84 µM (inactive) | 10.7 µM (inactive) | 3.24 µM (inactive) | 5.01 µM (inactive) | 5.21 µM (inactive) | 0.643 µM (active) | 2.82 µM (inactive)
2 | CC[C@@H]1CC[C@@H]2[C@H](CC[C@]3(C)[C@@H](O)CC[C@@H]23)[C@H]1C(=O)O | > 100 µM (inactive) | > 100 µM (inactive) | > 100 µM (inactive) | > 100 µM (inactive) | > 100 µM (inactive) | > 100 µM (inactive) | > 100 µM (inactive) | > 100 µM (inactive) | > 100 µM (inactive) | > 100 µM (inactive) | > 100 µM (inactive) | > 100 µM (inactive) | > 100 µM (inactive) | > 100 µM (inactive) | > 100 µM (inactive) | 18.8 µM (inactive) | > 100 µM (inactive) | > 100 µM (inactive) | > 100 µM (inactive) | > 100 µM (inactive)
3 | CCCCOC(=O)C(=O)C(CCC(=O)c1ccc(C)cc1)C(=O)C=C(C)C (stereo not given) | > 100 µM (inactive) | > 100 µM (inactive) | > 100 µM (inactive) | > 100 µM (inactive) | > 100 µM (inactive) | > 100 µM (inactive) | > 100 µM (inactive) | > 100 µM (inactive) | > 100 µM (inactive) | > 100 µM (inactive) | > 100 µM (inactive) | > 100 µM (inactive) | > 100 µM (inactive) | > 100 µM (inactive) | 52.7 µM (inactive) | > 100 µM (inactive) | > 100 µM (inactive) | > 100 µM (inactive) | > 100 µM (inactive) | > 100 µM (inactive)
4 | Cc1ccc2c(c1)C(=O)C1(Cc3ccccc3C1=O)C2 (stereo not given) | > 100 µM (inactive) | > 100 µM (inactive) | > 100 µM (inactive) | > 100 µM (inactive) | 30.1 µM (inactive) | > 100 µM (inactive) | > 100 µM (inactive) | > 100 µM (inactive) | > 100 µM (inactive) | > 100 µM (inactive) | > 100 µM (inactive) | > 100 µM (inactive) | 31.2 µM (inactive) | > 100 µM (inactive) | > 100 µM (inactive) | 67.1 µM (inactive) | > 100 µM (inactive) | > 100 µM (inactive) | 28.9 µM (inactive) | 1.86 µM (inactive)
5 | CO/C=C/C=C(\C#N)C(=O)OC | > 100 µM (inactive) | > 100 µM (inactive) | > 100 µM (inactive) | > 100 µM (inactive) | > 100 µM (inactive) | > 100 µM (inactive) | > 100 µM (inactive) | > 100 µM (inactive) | > 100 µM (inactive) | > 100 µM (inactive) | > 100 µM (inactive) | > 100 µM (inactive) | > 100 µM (inactive) | > 100 µM (inactive) | > 100 µM (inactive) | 60.3 µM (inactive) | > 100 µM (inactive) | > 100 µM (inactive) | > 100 µM (inactive) | > 100 µM (inactive)
6 | CC(C)(C)c1ccc(-c2nc3ccc(Cl)cc3c(=O)o2)cc1 | 23.4 µM (inactive) | 14.1 µM (inactive) | 20.6 µM (inactive) | 12.8 µM (inactive) | 11.9 µM (inactive) | 23.1 µM (inactive) | 18.2 µM (inactive) | 25 µM (inactive) | 0.324 µM (active) | 26.2 µM (inactive) | 22 µM (inactive) | 12.8 µM (inactive) | 18.4 µM (inactive) | 27.1 µM (inactive) | 14.5 µM (inactive) | 26.8 µM (inactive) | 12.6 µM (inactive) | 31.2 µM (inactive) | 18.8 µM (inactive) | 21.2 µM (inactive)
7 | COc1cc(-c2cc(=O)c3c(OC)c(OC)c(OC)c(OC)c3o2)cc(OC)c1OC [HEPATAMETHOXYFLAVONE] | 21.2 µM (inactive) | 21.9 µM (inactive) | 48.4 µM (inactive) | 30.3 µM (inactive) | 9.98 µM (inactive) | 35.9 µM (inactive) | 52.2 µM (inactive) | 84.3 µM (inactive) | 31.6 µM (inactive) | 42.3 µM (inactive) | 32.9 µM (inactive) | 12.4 µM (inactive) | 3.87 µM (inactive) | 43.6 µM (inactive) | 76.6 µM (inactive) | 26.4 µM (inactive) | 40.1 µM (inactive) | 40 µM (inactive) | 21 µM (inactive) | 7.38 µM (inactive)

Source: ChEMBL document CHEMBL1201862, “PubChem BioAssay data set” (2004)
